Test results reported in the supplement of paper PMC11061612.

How the values were obtained:
Capivasertib = compound: C1CN(CCC1(C(=O)N[C@@H](CCO)C2=CC=C(C=C2)Cl)N)C3=NC=NC4=C3C=CN4 [Capivasertib]; details: max 10 µM
Procedure, shortened: (§1)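 Cancer cell lines were seeded into 1536-well plates in 7.5 μl medium (DMEM/F12 or RPMI, 10% FBS), held 24 hours at 37°C and 5% CO2, and dosed for 72 hours with final DMSO typically 0.2%. Luminescence from CellTiter-Glo 2.0, scaled between blank-well and DMSO-well means, served as viability. The single-agent IC50 was obtained from dose-response fits with a non-linear mixed effects model, each fit being a two-parameter logistic curve.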

AZD1775 = compound: C=CCn1c(=O)c2cnc(Nc3ccc(N4CCN(C)CC4)cc3)nc2n1-c1cccc(C(C)(C)O)n1 [AZD1775]; details: max 3 µM
Procedure, shortened: as §1

Trametinib = compound: CC(=O)Nc1cccc(-n2c(=O)n(C3CC3)c(=O)c3c(Nc4ccc(I)cc4F)n(C)c(=O)c(C)c32)c1 [Trametinib]; details: max 1 µM
Procedure, shortened: as §1

Palbociclib = compound: CC(=O)c1c(C)c2cnc(Nc3ccc(N4CCNCC4)cn3)nc2n(C2CCCC2)c1=O [Palbociclib]; details: max 10 µM
Procedure, shortened: as §1

AZD1390 = compound: CC(C)n1c(=O)n(C)c2cnc3cc(F)c(-c4ccc(OCCCN5CCCCC5)nc4)cc3c21 [AZD1390]; details: max 0.3 µM
Procedure, shortened: as §1

Venetoclax = compound: CC1(C)CCC(CN2CCN(c3ccc(C(=O)NS(=O)(=O)c4ccc(NCC5CCOCC5)c([N+](=O)[O-])c4)c(Oc4cnc5[nH]ccc5c4)c3)CC2)=C(c2ccc(Cl)cc2)C1 [Venetoclax]; details: max 1 µM
Procedure, shortened: as §1

Dasatinib = compound: CC1=C(C(=CC=C1)Cl)NC(=O)C2=CN=C(S2)NC3=CC(=NC(=N3)C)N4CCN(CC4)CCO [Dasatinib]; details: max 2 µM
Procedure, shortened: as §1

SG3199 = compound: CC1=CN2[C@@H](C1)C=NC3=CC(=C(C=C3C2=O)OC)OCCCCCOC4=C(C=C5C(=C4)N=C[C@@H]6CC(=CN6C5=O)C)OC [SG3199]; details: max 0.001 µM
Procedure, shortened: as §1

AZD2811 = compound: CCN(CCO)CCCOc1ccc2c(Nc3cc(CC(=O)Nc4cccc(F)c4)[nH]n3)ncnc2c1 [AZD2811]; details: max 1 µM
Procedure, shortened: as §1

SN-38 = compound: CCc1c2c(nc3ccc(O)cc13)-c1cc3c(c(=O)n1C2)COC(=O)[C@]3(O)CC [SN-38]; details: max 0.3 µM
Procedure, shortened: as §1

AZD0156 = compound: CN(C)CCCOc1ccc(-c2ccc3ncc4c(c3c2)n(C2CCOCC2)c(=O)n4C)cn1 [AZD0156]; details: max 3 µM
Procedure, shortened: as §1

AZD4320 = compound: CN(CC[C@H](CSC1=CC=CC=C1)NC2=C(C=C(C=C2)S(=O)(=O)NC(=O)C3=CC=C(C=C3)N4CCC(CC4)[C@H](C5=CC=CC=C5C6=CC=C(C=C6)Cl)O)S(=O)(=O)C(F)(F)F)CCO [AZD4320]; details: max 1 µM
Procedure, shortened: as §1

Alisertib = compound: COc1cc(Nc2ncc3c(n2)-c2ccc(Cl)cc2C(c2c(F)cccc2OC)=NC3)ccc1C(=O)O [Alisertib]; details: max 10 µM
Procedure, shortened: as §1

Gefitinib = compound: COc1cc2ncnc(Nc3ccc(F)c(Cl)c3)c2cc1OCCCN1CCOCC1 [Gefitinib]; details: max 10 µM
Procedure, shortened: as §1

Prexasertib = compound: COc1cccc(OCCCN)c1-c1cc(Nc2cnc(C#N)cn2)n[nH]1 [Prexasertib]; details: max 1 µM
Procedure, shortened: as §1

Doxorubicin = compound: COc1cccc2c1C(=O)c1c(O)c3c(c(O)c1C2=O)C[C@@](O)(C(=O)CO)C[C@@H]3O[C@H]1C[C@H](N)[C@H](O)[C@H](C)O1 [Doxorubicin]; details: max 1 µM
Procedure, shortened: as §1

AZD5153 = compound: COc1nnc2ccc(N3CCC(c4ccc(OCCN5CCN(C)C(=O)[C@H]5C)cc4)CC3)nn12 [AZD5153]; details: max 1 µM
Procedure, shortened: as §1

Lapatinib = compound: CS(=O)(=O)CCNCc1ccc(-c2ccc3ncnc(Nc4ccc(OCc5cccc(F)c5)c(Cl)c4)c3c2)o1 [Lapatinib]; details: max 10 µM
Procedure, shortened: as §1

AZD8186 = compound: C[C@@H](Nc1cc(F)cc(F)c1)c1cc(C(=O)N(C)C)cc2c(=O)cc(N3CCOCC3)oc12 [AZD8186]
Procedure, shortened: as §1

Crizotinib = compound: C[C@@H](Oc1cc(-c2cnn(C3CCNCC3)c2)cnc1N)c1c(Cl)ccc(F)c1Cl [Crizotinib]; details: max 10 µM
Procedure, shortened: as §1

Savolitinib = compound: C[C@@H](c1ccc2nccn2c1)n1nnc2ncc(-c3cnn(C)c3)nc21 [Savolitinib]; details: max 1 µM
Procedure, shortened: as §1

AZD6738 = compound: C[C@@H]1COCCN1C2=NC(=NC(=C2)C3(CC3)[S@](=N)(=O)C)C4=C5C=CNC5=NC=C4 [AZD6738]; details: max 10 µM
Procedure, shortened: as §1

AZD5991 = compound: Cc1c2c(nn1C)CSCc1cc(n(C)n1)CSc1cc(c3ccccc3c1)OCCCc1c(C(=O)O)n(C)c3c-2c(Cl)ccc13 [AZD5991]; details: max 1 µM
Procedure, shortened: as §1

AZD7648 = compound: Cc1cc2ncnn2cc1Nc1ncc2c(n1)n(C1CCOCC1)c(=O)n2C [AZD7648]; details: max 10 µM
Procedure, shortened: as §1

Taselisib = compound: Cc1nc(-c2cn3c(n2)-c2ccc(-c4cnn(C(C)(C)C(N)=O)c4)cc2OCC3)n(C(C)C)n1 [Taselisib]; details: max 10 µM
Procedure, shortened: as §1

Selumetinib = compound: Cn1cnc2c(F)c(Nc3ccc(Br)cc3Cl)c(C(=O)NOCCO)cc21 [Selumetinib]; details: max 10 µM
Procedure, shortened: as §1

MK-2206 = compound: NC1(c2ccc(-c3nc4ccn5c(=O)[nH]nc5c4cc3-c3ccccc3)cc2)CCC1 [MK-2206]; details: max 10 µM
Procedure, shortened: as §1

Olaparib = compound: O=C(c1cc(Cc2n[nH]c(=O)c3ccccc23)ccc1F)N1CCN(C(=O)C2CC2)CC1 [Olaparib]; details: max 10 µM
Procedure, shortened: as §1

Carboplatin = compound: C1CC(C1)(C(=O)[O-])C(=O)[O-].N.N.[Pt+2] [Carboplatin]; details: max 10 µM
Procedure, shortened: as §1

AZD5363 = compound: C1CN(CCC1(C(=O)N[C@@H](CCO)C2=CC=C(C=C2)Cl)N)C3=NC=NC4=C3C=CN4 [AZD5363]; details: max 10 µM
Procedure, shortened: as §1

Paclitaxel = compound: CC(=O)O[C@H]1C(=O)[C@@]2(C)[C@H]([C@H](OC(=O)c3ccccc3)[C@]3(O)C[C@H](OC(=O)[C@H](O)[C@@H](NC(=O)c4ccccc4)c4ccccc4)C(C)=C1C3(C)C)[C@]1(OC(C)=O)CO[C@@H]1C[C@@H]2O [Paclitaxel]; details: max 3 µM
Procedure, shortened: as §1

Etoposide = compound: COc1cc([C@@H]2c3cc4c(cc3[C@@H](O[C@@H]3O[C@@H]5CO[C@@H](C)O[C@H]5[C@H](O)[C@H]3O)[C@H]3COC(=O)[C@H]23)OCO4)cc(OC)c1O [Etoposide]; details: max 10 µM
Procedure, shortened: as §1

SRA737 = compound: N#Cc1cnc(Nc2cc(NC[C@H]3CNCCO3)c(C(F)(F)F)cn2)cn1 [SRA737]; details: max 10 µM
Procedure, shortened: as §1

Gemcitabine = compound: Nc1ccn([C@@H]2O[C@H](CO)[C@@H](O)C2(F)F)c(=O)n1 [Gemcitabine]; details: max 0.3 µM
Procedure, shortened: as §1

[1] = compound: O=C(Nc1ccc2[nH]nc(-c3ccncc3)c2c1)[C@@H]1CCN(CC(=O)N2CCN(c3ccc(-c4ncccn4)cc3)CC2)C1; details: max 5 µM
Procedure, shortened: as §1

5-Fluorouracil = compound: O=c1[nH]cc(F)c(=O)[nH]1 [5-Fluorouracil]; details: max 20 µM
Procedure, shortened: as §1

Cell Line	IC50, cell viability 72 h (Capivasertib)	IC50, cell viability 72 h (AZD1775)	IC50, cell viability 72 h (Trametinib)	IC50, cell viability 72 h (Palbociclib)	IC50, cell viability 72 h (AZD1390)	IC50, cell viability 72 h (Venetoclax)	IC50, cell viability 72 h (Dasatinib)	IC50, cell viability 72 h (SG3199)	IC50, cell viability 72 h (AZD2811)	IC50, cell viability 72 h (SN-38)	IC50, cell viability 72 h (AZD0156)	IC50, cell viability 72 h (AZD4320)	IC50, cell viability 72 h (Alisertib)	IC50, cell viability 72 h (Gefitinib)	IC50, cell viability 72 h (Prexasertib)	IC50, cell viability 72 h (Doxorubicin)	IC50, cell viability 72 h (AZD5153)	IC50, cell viability 72 h (Lapatinib)	IC50, cell viability 72 h (AZD8186; max 3 µM)	IC50, cell viability 72 h (Crizotinib)	IC50, cell viability 72 h (Savolitinib)	IC50, cell viability 72 h (AZD6738)	IC50, cell viability 72 h (AZD5991)	IC50, cell viability 72 h (AZD7648)	IC50, cell viability 72 h (Taselisib)	IC50, cell viability 72 h (Selumetinib)	IC50, cell viability 72 h (MK-2206)	IC50, cell viability 72 h (Olaparib)	IC50, cell viability 72 h (Carboplatin)	IC50, cell viability 72 h (AZD5363)	IC50, cell viability 72 h (Paclitaxel)	IC50, cell viability 72 h (Etoposide)	IC50, cell viability 72 h (AZD8186; max 10 µM)	IC50, cell viability 72 h (SRA737)	IC50, cell viability 72 h (Gemcitabine)	IC50, cell viability 72 h [1]	IC50, cell viability 72 h (5-Fluorouracil)
KM-H2 (Hodgkin's Lymphoma)	> 10000 nM	615 nM	> 1000 nM	> 10000 nM	> 300 nM	> 1000 nM	> 2000 nM	> 1 nM	> 1000 nM	48.8 nM	> 3000 nM	> 1000 nM	> 10000 nM	> 10000 nM	29.1 nM	534 nM	> 1000 nM	> 10000 nM	> 3000 nM	> 10000 nM	> 1000 nM	4620 nM	> 1000 nM	> 10000 nM	> 10000 nM	> 10000 nM	> 10000 nM	> 10000 nM									
U-266 (Plasma Cell Myeloma)		1030 nM	225 nM	> 10000 nM	> 300 nM	> 1000 nM	> 2000 nM	> 1 nM	> 1000 nM	> 300 nM	> 3000 nM	841 nM	9540 nM	> 10000 nM	50.6 nM	> 1000 nM	> 1000 nM	> 10000 nM		> 10000 nM	> 1000 nM	> 10000 nM	219 nM	> 10000 nM	> 10000 nM	> 10000 nM	> 10000 nM	> 10000 nM	> 10000 nM	> 10000 nM	10.2 nM	> 10000 nM	> 10000 nM	> 10000 nM	131 nM	4960 nM	> 20000 nM
NCI-H211 (Small Cell Lung Carcinoma)		628 nM	> 1000 nM	6130 nM	> 300 nM	113 nM	> 2000 nM		19.5 nM	2.31 nM	> 3000 nM	23.3 nM		> 10000 nM			30.2 nM	8540 nM		1920 nM	> 1000 nM	5990 nM	307 nM	> 10000 nM	> 10000 nM	> 10000 nM	> 10000 nM	3580 nM	> 10000 nM	9900 nM	< 3 nM	342 nM	> 10000 nM	> 10000 nM	8.72 nM	> 5000 nM	> 20000 nM
RH-1 (Ewing's Sarcoma)	> 10000 nM	95.1 nM	> 1000 nM	> 10000 nM	> 300 nM	> 1000 nM	> 2000 nM	> 1 nM	22.6 nM	4.35 nM	> 3000 nM	830 nM	39 nM	> 10000 nM	18.4 nM	56.1 nM	> 1000 nM	> 10000 nM	> 3000 nM	2250 nM	> 1000 nM	2000 nM	550 nM	> 10000 nM	6260 nM	> 10000 nM	> 10000 nM	> 10000 nM									
SW780 (Bladder Carcinoma)	> 10000 nM	> 3000 nM	> 1000 nM	> 10000 nM	> 300 nM	> 1000 nM	> 2000 nM	> 1 nM	> 1000 nM	247 nM	> 3000 nM	> 1000 nM	> 10000 nM	> 10000 nM	> 1000 nM	> 1000 nM	> 1000 nM	> 10000 nM	> 3000 nM	> 10000 nM	> 1000 nM	> 10000 nM	> 1000 nM	> 10000 nM	> 10000 nM	> 10000 nM	> 10000 nM	> 10000 nM									
SW756 (Cervical Carcinoma)	> 10000 nM	> 3000 nM	> 1000 nM	> 10000 nM	> 300 nM	> 1000 nM	> 2000 nM	> 1 nM	> 1000 nM	32.3 nM	> 3000 nM	> 1000 nM	> 10000 nM	> 10000 nM	> 1000 nM	> 1000 nM	> 1000 nM	> 10000 nM	> 3000 nM	> 10000 nM	> 1000 nM	> 10000 nM	> 1000 nM	> 10000 nM	> 10000 nM	> 10000 nM	> 10000 nM	> 10000 nM									
